The record followed here is patent publication US6469010B1, “Medicament for the alleviation or treatment of symptom derived from the ischemic disease and compound useful thereof” (Suntory Limited, priority 1995, dated 2002).

Structures are written as SMILES.

The test system of experiment [1] is Na+ channel. The experiment is described as follows: Veratridine-induced sodium channel activity inhibiting action (membrane potential of synaptosomes, Rhodamine 6G). Format: biochemical, Wistar rats. The conditions noted are these: 0.1 μM of compound; rat brain synaptosomes, veratridine-induced depolarization. As for the experimental part: Veratridine-induced Sodium Channel Activity Inhibiting Action
The membrane potential of the synaptosomes prepared from the brain membrane of Wistar rats (male, 10 to 12 weeks old) was measured by the method of Aiuchi et al. [T. Aiuchi et al: Biochimi. Biophys. Acta.

The subject of experiment [2] is DBA/2N mice. Nature of the experiment: Audiogenic seizure suppressing action. It counts as in vivo. The conditions noted are these: Mus musculus, ip, 20 min; compound 10 mg/kg, i.p.; audio stimulus after 20 minutes; suppression of average seizure score; read-out: Antiseizure action (suppression rate %). As for the experimental part:
Audiogenic Seizure Suppressing Action
The audiogenic seizure suppressing action of the compounds was evaluated by the method of Sarro et al. [G. B. De Sarro et al.; Br. J. Pharmacol., 93, 247 (1988)]. That is, DBA/2N mice (male, 3 weeks) were administered with the compound dissolved in 10% 2-hydroxypropyl-β-cyclodextrin intraperitoneally. After 20 minutes, a supersonic washer was used to apply audio stimulus of at least 90 dB for one minute. The wild running (WR), clonic seizures (clonus), tonic seizures (tonus), and respiratory arrest (RA) were evaluated. The seizure suppressing action was evaluated from the rate or suppression of the average value of the seizure score found from 0=no response, 1=WR, 2=clonus, 3=tonus, and 4=RA.

Regarding `C1=C(c2ccc(Oc3ccccc3)cc2)CCN(C/C=C/c2ccccc2)C1` [Compound 18, (E)-4-(4-phenoxyphenyl)-1-(3-phenyl-2-propenyl)-1,2,3,6-tetrahydropyridine], the “Antiveratridine action (inhibiting rate %)” value in experiment [1] stood at 16%. Besides, in experiment [2], the inhibition in vivo at 10 mg/kg came to 27.9%.
Take `c1ccc(CCCN2CCC(c3ccc(Oc4ccccc4)cc3)CC2)cc1` [Compound 22, 4-(4-phenoxyphenyl)-1-(3-phenylpropyl)piperidine]: the inhibition in vivo at 10 mg/kg in experiment [2] was 85.7%.
With `COc1cc(/C=C/CN2CC=C(c3ccc(Oc4ccccc4)cc3)CC2)ccc1O` [Compound 24, (E)-1-[3-(4-hydroxy-3-methoxyphenyl)-2-propenyl]-4-(4-phenoxyphenyl)-1,2,3,6-tetrahydropyridine], in experiment [2], the inhibition in vivo at 10 mg/kg was found to be 49.1%.
On the same count and under the same terms, the result for `Fc1ccc(/C=C/CN2CCC(c3ccc(Oc4ccccc4)cc3)CC2)cc1` [Compound 25, (E)-1-[3-(4-fluorophenyl)-2-propenyl]-4-(4-phenoxyphenyl)piperidine] reads 72%; that for `Fc1ccc(OCCN2CCC(c3ccc(Oc4ccccc4)cc3)CC2)cc1` [Compound 27, 1-[2-(4-fluorophenyl)oxyethyl]-4-(4-phenoxyphenyl)piperidine], 34%.
Still for that read-out and setting: next, `Fc1ccc(Cc2ccc(C3=CCN(C/C=C/c4ccccc4)CC3)cc2)cc1` [Compound 31, (E)-4-[4-(4-fluorophenyl)-methylphenyl]-1-(3-phenyl-2-propenyl)-1,2,3,6-tetrahydropyridine]: 48%; `Fc1ccc(Cc2ccccc2C2=CCN(C/C=C/c3ccccc3)CC2)cc1` [Compound 34, (E)-4-[2-(4-fluorophenyl)methylphenyl]-1-(3-phenyl-2-propenyl)-1,2,3,6-tetrahydropyridine]: 34%; `C(=C\c1ccccc1)/CN1CCN(c2ccccc2Oc2ccccc2)CC1` [Compound 42, (E)-1-(2-phenoxyphenyl)-4-(3-phenyl-2-propenyl)piperazine]: 60%.
Regarding `C(=C\c1ccccc1)/CN1CCN(c2ccccc2Cc2ccccc2)CC1` [Compound 51, (E)-1-(2-benzylphenyl)-4-(3-phenyl-2-propenyl)piperazine], in experiment [2], the inhibition in vivo at 10 mg/kg came out at 71.4%.
Still for that read-out and setting: the result for `c1ccc(Cc2ccccc2N2CCN(CC3CC3c3ccccc3)CC2)cc1` (stereo not drawn) [Compound 52, (E)-1-(2-benzylphenyl)-4-[trans-(2-phenyl)cyclopropylmethyl]piperazine] reads 20%.
On to `Fc1ccc(Cc2ccc(N3CCN(CC4CC4c4ccccc4)CC3)cc2)cc1` (stereo not drawn) [Compound 55, (E)-1-[4-(4-fluorophenyl)-methylphenyl]-4-[trans-(2-phenyl)cyclopropylmethyl]-piperazine], for which, in experiment [2], the inhibition in vivo at 10 mg/kg worked out at 62%.
Take `COc1ccc(CN2CCN(c3ccc(Cc4ccc(F)cc4)cc3)CC2)c(OC)c1OC` [Compound 56, 1-[4-(4-fluorophenyl)-methylphenyl]-4-[(2,3,4-trimethoxyphenyl)methyl]piperazine]: the inhibition in vivo at 10 mg/kg in experiment [2] is 50%.
For `Fc1ccc(Cc2ccc(N3CCN(CCCCOc4ccc(F)cc4)CC3)cc2)cc1` [Compound 57, 4-[4-(4-fluorophenyl)-oxybutyl]-1-[4-(4-fluorophenyl)methylphenyl]pinerazine], in experiment [1], the “Antiveratridine action (inhibiting rate %)” value came to 25%.
As to `O=C(CN1CCC(c2ccc(Oc3ccccc3)cc2)CC1)c1ccc(Cl)cc1` [Compound 68, 1-[2-(4-chlorophenyl)-2-oxo]ethyl-4-(4-phenoxyphenyl]piperidine], the “Antiveratridine action (inhibiting rate %)” value in experiment [1] was determined as 38.9%.
Consider `COc1ccc(Cc2ccc(C3CCN(CC(=O)c4ccccc4)CC3)cc2)cc1` [Compound 70, 4-[4-(4-methoxyphenyl)methylphenyl]-1-(2-phenyl-2-oxo)ethylpiperidine], for which, in experiment [2], the inhibition in vivo at 10 mg/kg was found to be 73.9%.
The same measure, in the same setting: next, `O=C1c2ccccc2CC1N1CCC(c2ccc(Oc3ccccc3)cc2)CC1` (centres unmarked) [Compound 71, 1-(1-oxoindan-2-yl)-4-(4-phenoxy)phenylpiperidine]: 32%.
